Data set [1] deals with Sp2/0 myeloma. On the procedure: BALB/c male mice, aged 6-8 weeks and weighing ˜18-25 g, are procured from the Central Animal Facility, Indian Institute of Science, Bangalore. All mice received care according to institutional guidelines and are maintained under controlled conditions and fed with a standard diet.
Sp2/0 cells, a myeloma cell line, is grown in T175 flasks in IMDM complete medium supplemented with 10% fetal bovine serum, 2 mM L-glutamine, 100 U/ml penicillin, 100 μg/ml streptomycin, 10% nonessential amino acids, 10% HEPES, 10% sodium pyruvate, 50 μM 2-ME, 10 μg/ml gentamycin in a humidified atmosphere of 5% CO2 at 37° C.
An experimental syngeneic tumor model using the myeloma, Sp2/0 in BALB/c mice is studied. […] Different amounts of cells are washed and injected s.c. to establish the cell numbers that need to be injected to reproducibly display solid tumors within two weeks. Mice are sacrificed once the tumors reach a large size to avoid distress. Tumor volume is monitored on the mentioned days and calculated with the formula, V=a×b^2/2, where a is the longest and b is perpendicular to it, are measured on the surface of the tumor with vernier calipers.
BALB/c mice (5 per group) of 6 to 8 weeks of age are subcutaneously injected with Sp2/0 myeloma cells (˜10×10^6 cells/mouse). Thereafter, mice are intradermally injected with Mycobacterium indicus pranii (˜5×10^8) either 1 day prior to or 3 or 6 days post-inoculation of tumor cells. Tumor volume is estimated on 9th, 12th and 14th day of tumor inoculation. Vehicle alone (0.1 ml of PBS) is used as control and intradermally injected 3 days after administration of cells.
Next, the optimum dose of Mycobacterium indicus pranii required for reducing the tumor size and delaying the appearance of tumors is titrated. BALB/c mice (5 per group) of 6 to 8 weeks of age are subcutaneously injected with Sp2/0 Myeloma cells (˜10×10^6 cells/mouse). Mice are intradermally injected with different doses of Mycobacterium indicus pranii (5×10^3, 5×10^5, 5×10^7 and 5×10^8) 3 days post-inoculation of tumor cells. Tumor volume is estimated on the 9th, 12th and 14th day of tumor inoculation. Vehicle alone (0.1 ml of PBS) is used as control and intradermally injected 3 days after administration of cells.
BALB/c mice are intraperitoneally injected with three different doses of Cyclophosphamide, Indomethacin and RU486 four days after implantation of Sp2/0 cells. The doses of Cyclophosphamide, Indomethacin and RU486 are chosen based on that administered to mice and the standardization of the same in the Sp2/0 tumor model is depicted in FIG. 4. BALB/c mice (5 per group) of 6 to 8 weeks of age are subcutaneously injected with Sp2/0 myeloma cells (˜10×10^6 cells/mouse). The mice are then intraperitoneally injected with different doses of either Cyclophosphamide (5, 15 or 100 mg/Kg body weight/mouse) or Indomethacin (0.1, 1 or 10 mg/Kg body weight/mouse) or RU486 (0.1, 1 or 5 mg/Kg body weight/mouse), 4 days post-inoculation of tumor cells. Tumor volume is estimated on the 9th, 12th and 14th day after tumor inoculation. Vehicle alone (0.5 ml of PBS) is used as control and intradermally injected 4 days after administration of cells.
BALB/c mice (5 per group) of 6 to 8 weeks of age are subcutaneously injected with Sp2/0 myeloma cells (˜10×10^6 cells/mouse). Four groups of mice are intradermally injected with Mycobacterium indicus pranii (˜5×10^8) 3 days post-inoculation of tumor cells. Three groups of Mycobacterium indicus pranii injected mice are intraperitoneally injected with Cyclophosphamide (15 mg/Kg b. wt.), Indomethacin (1 mg/Kg b. wt.) and RU486 (1 mg/Kg b. wt.) on the next day.

The subject of data set [2] is EL4 thymoma. The data set can be described thus: EL4 thymoma subcutaneous tumor model in C57BL/6 mice (tumor volume). Format: in vivo. On the procedure:
EL4 cells, a thymoma cell line, is grown in T75 flasks in RPMI complete medium supplemented with 10% fetal bovine serum, 2 mM L-glutamine, 100 U/ml penicillin, 100 μg/ml streptomycin, 10% nonessential amino acids, 10% HEPES, 10% sodium pyruvate, 50 μM 2-ME, 10 μg/ml gentamycin in a humidified atmosphere of 5% CO2 at 37° C.
C57BL/6 mice (5 per group) of 6 to 8 weeks of age are injected subcutaneously with EL4 […] cells (˜0.5×10^6 cells/mouse). Two groups of mice are intradermally injected with Mycobacterium indicus pranii (˜5×10^8) either 3 or 7 days post-inoculation of tumor cells. Two groups of mice one injected previously with MIP and another uninjected are intraperitoneally injected with 15 mg/Kg body weight of Cyclophosphamide on the next day. Tumor volume is estimated in the three groups of mice on the 11th, 14th and 17th day after tumor inoculation. This has been depicted in FIG. 13. Vehicle alone (0.1 ml of PBS) is used as control and intradermally injected 7 days after administration of cells.

Data set [3] relates to B-cell malignancies such as Multiple myeloma, Solitary plasmacytoma and Plasma cell leukemia. The data set can be described thus: Mice with B-cell malignancies treated with MIP, Cyclophosphamide or both (Conclusion). Format: in vivo. To be noted: MIP ~5×10^8 intradermal and/or Cyclophosphamide 15 mg/Kg i.p. next day; compared with initial tumor size. On the procedure:
The synergistic combination of Cyclophosphamide and Mycobacterium indicus pranii is administered to mice detected with B-cell malignancies such as Multiple myeloma, Solitary plasmacytoma and Plasma cell leukemia. The experiment is conducted mainly on mice which have been detected with said myelomas. The mice are initially examined and the tumor growth and size approximately determined. The mice are then divided into groups so that 5 mice form a group. One mice group is subjected to only Mycobacterium indicus pranii treatment and another group to only Cyclophosphamide treatment. The third group of mice is subjected to a treatment of Mycobacterium indicus pranii along with Cyclophosphamide. This third group of mice are initially intradermally injected with Mycobacterium indicus pranii at a concentration range of ˜5×10^8 cells. […] The mice are then re-examined and the tumor volume estimated on different days after Mycobacterium indicus pranii administration.

Molecules are shown by their SMILES. Entries after “also recorded” stand apart in the source; their conditions may differ. Where two headings read alike, the source gives them in different places.

As to `COc1ccc2c(c1)c(CC(=O)O)c(C)n2C(=O)c1ccc(Cl)cc1` [Indomethacin], the tumor volume result in data set [1] (0.1, 1 or 10 mg/Kg body weight i.p. day 4, alone, even at the highest dose) was “did not show any significant reduction in tumor volume”; in data set [1] (MIP ~5×10^8 intradermal day 3 plus drug i.p. day 4 (Cyclophosphamide 15, Indomethacin 1 or RU486 1 mg/Kg b. wt.)) it was “seemed to reverse the beneficial effects observed with Mycobacterium indicus pranii”.
As to `O=P1(N(CCCl)CCCl)NCCCO1` (stereo not shown) [Cyclophosphamide], the tumor progression entry was “not able to reduce tumor progression” in data set [1] (5 mg/Kg body weight i.p. day 4, alone) and “able to prevent tumor progression to a considerable extent” in data set [1] (100 mg/Kg body weight i.p. day 4, alone). Also, the “tumor volume / tumor progression” value in data set [1] (15 mg/Kg b. wt. i.p. day 4, alone) is on record as “not able to sufficiently prevent tumor progression; also recorded: showed some reduction in tumor volume”. The tumor volume entry is “showed some reduction in tumor volume; also recorded: unable to induce any effect on tumor reduction” in data set [1] (15 mg/Kg b. wt. i.p. day 8, alone); “effective” in data set [1] (50 mg/Kg b. wt. i.p. day 4, alone); “significant tumor reduction” in data set [1] (50 mg/kg i.p. day 8, alone); “did not significantly reduce tumor volume” in data set [1] (1, 5 and 15 mg/Kg b. wt. i.p. day 8, alone); “unable to reduce tumor volume” in data set [1] (1 and 5 mg/Kg b. wt. i.p. day 4, alone); “had no effect on tumor volume” in data set [1] (Cyclophosphamide alone on the same day as MIP (day 3), one day prior or one day after). Besides, in data set [1] (50 mg/Kg b. wt. i.p.), the toxicity to mice entry is “toxic to mice”. Further, the “effect on the mice (toxicity)” value in data set [1] (100 mg/Kg body weight i.p. day 4) was “reduced body weight and hair loss”. In data set [2] (15 mg/Kg body weight i.p. day 4 or day 8, alone), the tumor reduction result is reported as “unable to induce any effect on tumor reduction”. For the same molecule, in data set [2] (15 mg/Kg body weight i.p. on day 8, alone, vs PBS), the tumor size entry is “greater than observed with PBS”. For the same molecule, in data set [3], the tumor size/volume result is listed as “failed to elicit a similar tumor size reduction”.

The values above are taken from patent publication US8367075B2, “Synergistic combination and method thereof” (Indian Institute of Science, priority 2010, dated 2013).
